From BindingDB's records for doi:10.7270/Q2KD1WBN (Burnham Center For Chemical Genomics, 2010)

What follows are compounds tested against Envelope glycoprotein gp160 (Human immunodeficiency virus 1, UniProt Q6QLK5) (assay: HIV fusion inhibitor analogs, peptide binding, SAR follow-up, biochemical, fluorescence quenching (AID 434967)).
Chain of Envelope glycoprotein gp160 (Q6QLK5 whole entry, the tested form may be a part): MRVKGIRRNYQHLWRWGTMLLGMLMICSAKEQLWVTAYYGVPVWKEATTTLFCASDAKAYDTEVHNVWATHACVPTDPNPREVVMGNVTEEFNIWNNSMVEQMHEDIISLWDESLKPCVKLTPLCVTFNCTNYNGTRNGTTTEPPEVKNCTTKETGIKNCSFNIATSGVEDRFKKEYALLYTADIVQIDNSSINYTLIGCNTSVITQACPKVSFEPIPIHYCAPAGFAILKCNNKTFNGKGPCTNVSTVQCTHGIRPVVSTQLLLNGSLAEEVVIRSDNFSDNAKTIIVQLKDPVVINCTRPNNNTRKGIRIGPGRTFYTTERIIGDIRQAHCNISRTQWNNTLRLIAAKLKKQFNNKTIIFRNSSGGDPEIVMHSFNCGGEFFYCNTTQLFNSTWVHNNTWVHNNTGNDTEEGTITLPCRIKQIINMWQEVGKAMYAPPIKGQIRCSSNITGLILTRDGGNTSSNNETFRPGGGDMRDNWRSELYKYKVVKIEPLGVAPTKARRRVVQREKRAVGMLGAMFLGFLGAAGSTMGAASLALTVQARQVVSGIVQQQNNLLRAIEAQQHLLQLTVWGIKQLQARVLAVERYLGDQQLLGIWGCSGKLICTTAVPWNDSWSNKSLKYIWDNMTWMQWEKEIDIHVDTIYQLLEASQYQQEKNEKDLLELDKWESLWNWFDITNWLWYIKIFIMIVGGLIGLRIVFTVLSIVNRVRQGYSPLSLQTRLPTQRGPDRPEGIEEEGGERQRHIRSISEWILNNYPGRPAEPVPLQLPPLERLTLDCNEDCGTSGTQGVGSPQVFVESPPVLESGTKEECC

Structure (SMILES)	IC50
CC(C)NC(=O)c1sc(=S)n2c1[nH]c(=O)c1ccc(C(=O)NCCc3ccc(Cl)cc3)cc12 [N8-[2-(4-chlorophenyl)ethyl]-5-oxidanylidene-N3-propan-2-yl-1-sulfanylidene-4H-[1,3]thiazolo[3,4-a]quinazoline-3,8-dicarboxamide]	9.56 µM
CCOC(=O)C1=C(C)N=c2sc(=Cc3ccc(OCC(=O)O)cc3)c(=O)n2C1c1ccc(OC(C)C)cc1 (stereo not drawn) [2-[4-[[6-ethoxycarbonyl-7-methyl-3-oxo-5-(4-propan-2-yloxyphenyl)-5H-[1,3]thiazolo[3,2-a]pyrimidin-2-ylidene]methyl]phenoxy]acetic acid]	6.64 µM
CCS(=O)(=O)C1=NSC2=NC(=O)/C(=C\c3ccc(OS(=O)(=O)c4ccccc4)cc3)C(=N)N21 [MLS-0362442.0001]	11.5 µM
N#C/C(=C\C1C=CC(=O)C([N+](=O)[O-])=C1)c1nc2ccccc2s1 (stereo not drawn)	6.25 µM
CCOC(=O)c1sc(N2C(=O)C(=O)C(C(=O)c3ccc(C)o3)C2c2cccc([N+](=O)[O-])c2)nc1C (stereo not drawn) [ethyl 4-methyl-2-[3-(5-methylfuran-2-yl)carbonyl-2-(3-nitrophenyl)-4-oxidanyl-5-oxidanylidene-2H-pyrrol-1-yl]-1,3-thiazole-5-carboxylate]	10.5 µM
COc1cc(/C=C2\SC(=O)N(c3ccccc3Cl)C2=O)cc([N+](=O)[O-])c1O	9.04 µM
O=c1/c(=C/c2cc([N+](=O)[O-])cc([N+](=O)[O-])c2O)sc2nc3ccccc3n12 [2-[(2-hydroxy-3,5-dinitrophenyl)methylidene]-1-thiazolo[3,2-a]benzimidazolone]	2.61 µM
CS(=O)(=O)C1=NSC2=NC(=O)/C(=C\c3ccc(OS(=O)(=O)c4ccccc4)cc3)C(=N)N21	7.73 µM
COc1ccc(OC)c(N2C(=O)C(=Cc3ccco3)C(=O)NC2=S)c1 [MLS001197216]	6.06 µM
Cc1cc(C)cc(-n2cccc2/C=C2/C(=N)N3C(=NC2=O)SN=C3S(C)(=O)=O)c1 [(6Z)-5-azanylidene-6-[[1-(3,5-dimethylphenyl)pyrrol-2-yl]methylidene]-3-methylsulfonyl-[1,2,4]thiadiazolo[4,5-a]pyrimidin-7-one]	7.81 µM
CC1(C)CC(=O)C2=C(C1)c1c(ccc3ccccc13)NC2c1cc([N+](=O)[O-])cc([N+](=O)[O-])c1O (stereo not drawn) [MLS000716265]	13.5 µM
CC(C)S(=O)(=O)C1=NSC2=NC(=O)/C(=C\c3ccc(-c4ccccc4)o3)C(=N)N21 [(6Z)-5-imino-6-[(5-phenyl-2-furanyl)methylidene]-3-propan-2-ylsulfonyl-[1,2,4]thiadiazolo[4,5-a]pyrimidin-7-one]	9.65 µM
CC(C)S(=O)(=O)C1=NSC2=NC(=O)/C(=C\c3ccc(-c4cccc(C(=O)O)c4)o3)C(=N)N21 [3-[5-[(Z)-(5-imino-7-oxo-3-propan-2-ylsulfonyl-[1,2,4]thiadiazolo[4,5-a]pyrimidin-6-ylidene)methyl]furan-2-yl]benzoic acid]	4.49 µM
COc1cc(/C=N/NS(=O)(=O)c2ccc3ccccc3c2)ccc1OCc1ccc(C(=O)O)cc1 [MLS-0298745.0001]	7.76 µM
CC(C)(C)c1cc(-c2cs/c(=N\c3ccccc3)n2Cc2ccc(C(=O)O)cc2)cc(C(C)(C)C)c1O [4-[[4-(3,5-ditert-butyl-4-oxidanyl-phenyl)-2-phenylazanyl-1,3-thiazol-3-ium-3-yl]methyl]benzoic acid;bromide]	27.3 µM
O=C(O)c1ccccc1C(=O)N(Cc1cccc(Oc2ccc(Cl)cc2)c1)[C@H]1CCCc2ccccc21 [2-[[[3-(4-chlorophenoxy)phenyl]methyl-[(1S)-1,2,3,4-tetrahydronaphthalen-1-yl]amino]-oxomethyl]benzoic acid]	2.6 µM
CCOc1cc(/C=C2\SC(=O)N(CC(=O)Nc3ccccc3F)C2=O)cc([N+](=O)[O-])c1O	4.32 µM
COC(=O)c1sc(-c2ccc(C(C)(C)C)cc2)cc1NC(=O)c1ccccc1C(=O)O [SMR000456098]	5.94 µM
Cc1c2c(=O)n(-c3nc4ccccc4s3)[nH]c2cc(=O)n1Cc1ccccc1 [MLS000762993]	10.1 µM

Structure (SMILES)	IC50
CCC(C)(C)C1CCc2c(sc(NC(=O)c3ccccc3C(=O)O)c2C#N)C1 (stereo not drawn) [2-[[3-cyano-6-(2-methylbutan-2-yl)-4,5,6,7-tetrahydro-1-benzothiophen-2-yl]carbamoyl]benzoic acid]	6.1 µM
CSc1nnc(-c2ccccc2N=Cc2c(C)[nH]n(-c3ccc4ccccc4c3)c2=O)c(=O)[nH]1 [MLS000540062]	9.84 µM
O=C(O)CCCN1C(=O)/C(=C/c2ccc(-c3nc4ccccc4s3)o2)SC1=S [4-[(5Z)-5-[[5-(1,3-benzothiazol-2-yl)furan-2-yl]methylidene]-4-oxo-2-sulfanylidene-1,3-thiazolidin-3-yl]butanoic acid]	1.76 µM
O=C1NC(=S)N(c2ccc(F)cc2)C(=O)C1=Cc1ccoc1 [SMR000270574]	8.59 µM
O=C1NC(=S)N(C2CCCCC2)C(=O)C1=CNNC(=O)c1ccccc1O [N'-[(E)-(1-cyclohexyl-4,6-dioxo-2-sulfanylidene-1,3-diazinan-5-ylidene)methyl]-2-hydroxybenzohydrazide]	9 µM
COc1cc(CN=Nc2ccc(Cl)c(C(=O)O)c2)ccc1OC(=O)c1ccccc1F [SMR000589905]	25.9 µM
COc1ccccc1NS(=O)(=O)c1cccc(-n2c(O)c(C=Nc3ccccc3C(=O)O)c3ccccc3c2=O)c1 [MLS000776209]	9.64 µM
CCC(Sc1nc2ccsc2c(=O)n1Cc1ccc(C(=O)O)cc1)C(=O)Nc1ccc(C)c(Cl)c1 (stereo not drawn)	8.01 µM
CS(=O)(=O)C1=NSC2=NC(=O)/C(=C\c3cccn3-c3ccc(Cl)cc3)C(=N)N21	5.7 µM
O=[N+]([O-])c1cc([N+](=O)[O-])c2oc(-c3ccccc3)c(Br)c2c1O [3-bromanyl-5,7-dinitro-2-phenyl-1-benzofuran-4-ol]	14.5 µM
O=C(O)c1cc(N=NCc2ccc(-c3ccccc3)cc2)ccc1Cl [MLS-0319671.0001]	14.8 µM
COc1ccc(C(=O)Oc2ccc(CN=Nc3ccc(Cl)c(C(=O)O)c3)cc2OC)cc1 [SMR000589907]	5.16 µM
Cc1ccc(-n2c(O)c(C=Nc3ccccc3-c3n[nH]c(=S)[nH]c3=O)c3ccccc3c2=O)c(C)c1 [SMR000370443]	5.76 µM
Cc1ccc(S(=O)(=O)Oc2ccc(/C=C3/C(=N)N4C(=NC3=O)SN=C4S(C)(=O)=O)cc2)cc1 [4-methylbenzenesulfonic acid [4-[(Z)-(5-imino-3-methylsulfonyl-7-oxo-[1,2,4]thiadiazolo[4,5-a]pyrimidin-6-ylidene)methyl]phenyl] ester]	6.51 µM
O=C1Nc2ccc([N+](=O)[O-])cc2C1=NNc1ccccc1C(=O)O [2-[2-(5-nitro-2-oxidanylidene-indol-3-yl)hydrazinyl]benzoic acid]	13.3 µM
Cc1ccc(-n2cccc2/C=C2/C(=N)N3C(=NC2=O)SN=C3S(C)(=O)=O)cc1Cl [MLS000583163]	5.76 µM
O=C1NC(=S)N(c2ccc(F)cc2)C(=O)C1=Cc1ccco1 [(5E)-1-(4-fluorophenyl)-5-(2-furanylmethylidene)-2-sulfanylidene-1,3-diazinane-4,6-dione]	10 µM
Cc1c(Cl)cccc1NS(=O)(=O)c1ccc2c(c1)C1C=CCC1C(c1ccc(C(=O)O)cc1)N2 (stereo not drawn)	3.16 µM
COc1cc(CN=Nc2ccc(Cl)c(C(=O)O)c2)ccc1OC(=O)c1ccc(F)cc1 [2-chloro-5-[2-[[4-[(4-fluorophenyl)-oxomethoxy]-3-methoxyphenyl]methylidene]hydrazinyl]benzoic acid]	8.03 µM
